From patent US20160083391A1, “TRICYCLIC PIPERAZINE DERIVATIVE” (Sunovion Pharmaceuticals Inc., priority 2014, published 2016)

System: PDE1
Experiment: In vitro HTRF PDE1 inhibition assay
Format: biochemical
Settings: HTRF cGMP assay, 100 nM cyclic GMP, PDE (1A3, 1B or 1C) with calmodulin, 45 minutes at 37° C.; isoform of the tabulated values not stated
Outline: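 HTRF cGMP competition assay: PDE1A3, 1B or 1C with calmodulin acting on 100 nM cGMP in 1% DMSO, pH 7.4 buffer with Ca2+ and Mg2+, 45 min at 37 °C. Remaining cGMP detected with d2-cGMP and anti-cGMP cryptate (665/615 nm); IC50 reported as banded categories.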

Row | IC50 [µM] | Structure (SMILES)
1 | 1 to 10 | O=c1c2cnn(C3CCCC3)c2nc2n1CCN(Cc1ccccc1)C2 [Compound I-52, 8-Benzyl-1-cyclopentyl-6,7,8,9-tetrahydropyrazino[1,2-a]pyrazolo[3,4-d]pyrimidin-4(1H)-one]
2 | > 10 | O=c1c2cnn(-c3ccccc3)c2nc2n1CCN(Cc1ccccc1)C2 [Compound I-30, 8-Benzyl-1-phenyl-6,7,8,9-tetrahydropyrazino[1,2-a]pyrazolo[3,4-d]pyrimidin-4(1H)-one]
3 | 1 to 10 | COc1ccc(CN2CCn3c(nn4c(C(C)C)nnc4c3=O)C2)cc1 [Compound I-222, 3-Isopropyl-7-(4-methoxybenzyl)-8,9-dihydro-6H-pyrazino[2,1-c][1,2,4]triazolo[3,4-f][1,2,4]triazin-11(7H)-one]
4 | < 1 | CC(C)c1ncc2c(=O)n3c(nn12)CN(c1ccc(Cl)cn1)CC3 [Compound I-242, 7-(5-Chloropyridin-2-yl)-3-isopropyl-8,9-dihydro-6H-imidazo[5,1-f]pyrazino[2,1-c][1,2,4]triazin-11(7H)-one]
